{"source": "paper PMC2810552", "about": "(Journal of medicinal chemistry, 2009)", "key": {"[1]": {"molecular_target": "T1, Gal4DBD-GRLBD-VP16 fusion protein in HeLa cells (Homo sapiens, UniProt P04150)", "T1 sequence (P04150 524-758 limits assumed)": "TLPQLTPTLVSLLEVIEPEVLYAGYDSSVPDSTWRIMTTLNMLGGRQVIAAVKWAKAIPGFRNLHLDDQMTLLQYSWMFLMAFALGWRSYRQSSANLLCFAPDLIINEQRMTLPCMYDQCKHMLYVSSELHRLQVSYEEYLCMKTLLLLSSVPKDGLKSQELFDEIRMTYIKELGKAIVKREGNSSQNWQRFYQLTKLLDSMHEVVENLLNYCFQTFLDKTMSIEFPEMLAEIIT", "type": "cell-based", "conditions": "for Luc activity induced (in words): up to 6 µM"}, "[2]": {"test": "Solubility limit observed in the Luc assay", "type": "physicochemical", "conditions": "cell-based Luc induction (reporter) assay in HeLa cells"}, "[3]": {"molecular_target": "T2, breast cancer cell line MCF7 (Homo sapiens, UniProt P04150)", "T2 sequence (P04150 524-758 limits assumed)": "T1 sequence (P04150 524-758 limits assumed)", "test": "Cell-based functional permeability assay: luciferase reporter in MCF7 cells"}, "[4]": {"molecular_target": "T1, Gal4DBD-GRLBD-VP16 fusion protein in HeLa cells", "conditions": "cited from earlier work"}}, "note": "Read-outs that look alike come from different tables or passages of the source."}
{"smiles": "C[C@H]1C[C@@H]2[C@H]3CCC4=CC(=O)C=C[C@@]4(C)[C@]3(F)[C@H](O)C[C@@]2(C)[C@]1(O)C(=O)CSCCNC(=S)NCCNC(=O)c1cc(NC(=O)c2cc(NC(=O)c3nccn3C)cn2C)cn1C", "note": "[ImPy2-Et-Sdex (22), ImPy2-Et-Sdex]", "values": [{"measurement": "concentration at which maximum Luc induction was achieved", "setting": "[1]", "value": 6, "unit": "µM"}]}
{"smiles": "CC(=O)NCCCN(C)CCCNC(=S)NCCSCC(=O)[C@@]1(O)[C@H](C)C[C@H]2[C@@H]3CCC4=CC(=O)C=C[C@]4(C)[C@@]3(F)[C@@H](O)C[C@@]21C", "note": "[Ac-Da-Sdex (28), Ac-Da-Sdex]", "values": [{"measurement": "concentration at which maximum Luc induction was achieved", "setting": "[1]", "value": 6, "unit": "µM"}, {"measurement": "maximum Luc induction", "setting": "[1]", "value": "3,000 fold"}]}
{"smiles": "C[C@H]1C[C@@H]2[C@H]3CCC4=CC(=O)C=C[C@@]4(C)[C@]3(F)[C@H](O)C[C@@]2(C)[C@]1(O)C(=O)NCCNC(=O)c1cc(NC(=O)c2cc(NC(=O)c3cc(NC(=O)c4cc(NC(=O)CCCNC(=O)c5cc(NC(=O)c6cc(NC(=O)c7cc(NC(=O)c8nccn8C)cn7C)cn6C)cn5C)cn4C)cn3C)cn2C)cn1C", "note": "[ImPy7γ-Et-Oxdex (24), ImPy7γ-Et-Oxdex]", "values": [{"measurement": "solubility", "setting": "[2]", "value": "≤ 10", "unit": "µM"}, {"measurement": "Luc induction at 10 µM, times lower than that of ImPy2-Et-Oxdex", "setting": "[1]", "value": 4, "unit": "times"}, {"measurement": "Luc induction at 10 µM, times lower than that of ImPy-Et-Oxdex", "setting": "[1]", "value": 7, "unit": "times"}]}
{"smiles": "C[C@H]1C[C@@H]2[C@H]3CCC4=CC(=O)C=C[C@@]4(C)[C@]3(F)[C@H](O)C[C@@]2(C)[C@]1(O)C(=O)CSCCNC(=S)NCCNC(=O)c1cc(NC(=O)c2cncn2C)cn1C", "note": "[ImPy-Et-Sdex (23), ImPy-Et-Sdex]", "values": [{"measurement": "maximum Luc induction", "setting": "[1]", "value": 3700, "unit": "fold"}, {"measurement": "EC50", "setting": "[3]", "value": 0.94, "unit": "µM"}]}
{"smiles": "C[C@H]1C[C@@H]2[C@H]3CCC4=CC(=O)C=C[C@@]4(C)[C@]3(F)[C@H](O)C[C@@]2(C)[C@]1(O)C(=O)NCCNC(=O)c1cc(NC(=O)c2cc(NC(=O)c3cc(NC(=O)c4nccn4C)cn3C)cn2C)cn1C", "note": "[ImPy3-Et-Oxdex (25), ImPy3-Et-Oxdex]", "values": [{"measurement": "solubility", "setting": "[2]", "value": "≤ 10", "unit": "µM"}, {"measurement": "Luc induction at 10 µM, times lower than that of ImPy2-Et-Oxdex", "setting": "[1]", "value": 4, "unit": "times"}, {"measurement": "Luc induction at 10 µM, times lower than that of ImPy-Et-Oxdex", "setting": "[1]", "value": 7, "unit": "times"}]}
{"smiles": "C[C@@H]1C[C@H]2[C@@H]3CCC4=CC(=O)C=C[C@]4(C)[C@@]3(F)[C@@H](O)C[C@]2(C)[C@@]1(O)C(N)=O", "note": "[Oxdex-CONH2 (4), Oxdex-CONH2, reference compound]", "values": [{"measurement": "EC50", "setting": "[4]; read-out: EC50 of Luc induction, HeLa cells", "value": "35 ± 3", "unit": "µM"}]}
{"smiles": "C[C@H]1C[C@@H]2[C@H]3CCC4=CC(=O)C=C[C@@]4(C)[C@]3(F)[C@H](O)C[C@@]2(C)[C@]1(O)C(=O)CSCCNC(=S)NCCNC(=O)c1cc(NC(=O)c2cc(NC(=O)c3cc(NC(=O)c4cc(NC(=O)CCCNC(=O)c5cc(NC(=O)c6cc(NC(=O)c7cc(NC(=O)c8nccn8C)cn7C)cn6C)cn5C)cn4C)cn3C)cn2C)cn1C", "note": "[ImPy7γ-Et-Sdex (16), ImPy7γ-Et-Sdex]", "values": [{"measurement": "Luc activity induction at 6 µM", "setting": "[1]; 6 µM", "value": "1,500 fold"}, {"measurement": "Luc activity induced (in words)", "setting": "[1]", "value": "higher levels compared to ImPy4γ-Et-Sdex (19)"}, {"measurement": "Luc activity / cellular uptake (in words)", "setting": "[3]; MCF7 cells", "value": "modest improvement of cellular uptake"}]}
{"smiles": "C[C@H]1C[C@@H]2[C@H]3CCC4=CC(=O)C=C[C@@]4(C)[C@]3(F)[C@H](O)C[C@@]2(C)[C@]1(O)C(=O)CSCCNC(=S)NCCNC(=O)c1cc(NC(=O)c2cc(NC(=O)c3cc(NC(=O)c4cc(NC(=O)CCCNC(=O)c5cc(NC(=O)c6cc(NC(=O)c7nccn7C)cn6C)cn5C)cn4C)cn3C)cn2C)cn1C", "note": "[ImPy6γ-Et-Sdex (17), ImPy6γ-Et-Sdex]", "values": [{"measurement": "Luc activity induced (in words)", "setting": "[1]", "value": "higher levels compared to ImPy4γ-Et-Sdex (19)"}]}
{"smiles": "C[C@H]1C[C@@H]2[C@H]3CCC4=CC(=O)C=C[C@@]4(C)[C@]3(F)[C@H](O)C[C@@]2(C)[C@]1(O)C(=O)CSCCNC(=S)NCCNC(=O)c1cc(NC(=O)c2cc(NC(=O)c3cc(NC(=O)c4cc(NC(=O)c5nccn5C)cn4C)cn3C)cn2C)cn1C", "note": "[ImPy4-Et-Sdex (20), ImPy4-Et-Sdex]", "values": [{"measurement": "Luc activity induced (in words)", "setting": "[1]", "value": "did not achieve the maximum induction at 6 µM"}]}
{"smiles": "C[C@H]1C[C@@H]2[C@H]3CCC4=CC(=O)C=C[C@@]4(C)[C@]3(F)[C@H](O)C[C@@]2(C)[C@]1(O)C(=O)CSCCNC(=S)NCCNC(=O)c1cc(NC(=O)c2cc(NC(=O)c3cc(NC(=O)c4nccn4C)cn3C)cn2C)cn1C", "note": "[ImPy3-Et-Sdex (21), ImPy3-Et-Sdex]", "values": [{"measurement": "Luc activity induced (in words)", "setting": "[1]", "value": "did not achieve the maximum induction at 6 µM"}]}
{"smiles": "C[C@@H]1C[C@H]2[C@@H]3CCC4=CC(=O)C=C[C@]4(C)[C@@]3(F)[C@@H](O)C[C@]2(C)[C@@]1(O)C(=O)CSCCNC(=S)NCCCN(C)CCCNC(=O)CCNC(=O)c1cc(NC(=O)c2cc(NC(=O)c3cc(NC(=O)c4cc(NC(=O)CCCNC(=O)c5cc(NC(=O)c6cc(NC(=O)c7cc(NC(=O)c8nccn8C)cn7C)cn6C)cn5C)cn4C)cn3C)cn2C)cn1C", "note": "[ImPy7γ-βDa-Sdex (6), ImPy7γ-βDa-Sdex]", "values": [{"measurement": "Luc activity induced (in words)", "setting": "[4]; cell-based functional assay", "value": "modest Luc activity"}]}
{"smiles": "C[C@H]1C[C@@H]2[C@H]3CCC4=CC(=O)C=C[C@@]4(C)[C@]3(F)[C@H](O)C[C@@]2(C)[C@]1(O)C(=O)NCCNC(=O)c1cc(NC(=O)c2nccn2C)cn1C", "note": "[ImPy-Et-Oxdex (27), ImPy-Et-Oxdex]", "values": [{"measurement": "concentration at which maximum Luc induction was achieved", "setting": "[1]", "value": "~20", "unit": "µM"}]}
{"smiles": "C[C@H]1C[C@@H]2[C@H]3CCC4=CC(=O)C=C[C@@]4(C)[C@]3(F)[C@H](O)C[C@@]2(C)[C@]1(O)C(=O)CSCCNC(=S)NCCNC(=O)c1cc(NC(=O)c2cc(NC(=O)c3cc(NC(=O)c4cc(NC(=O)CCCNC(=O)c5cc(NC(=O)c6nccn6C)cn5C)cn4C)cn3C)cn2C)cn1C", "note": "[ImPy5γ-Et-Sdex (18), ImPy5γ-Et-Sdex]", "values": [{"measurement": "Luc activity induced (in words)", "setting": "[1]", "value": "higher levels compared to ImPy4γ-Et-Sdex (19)"}]}
{"smiles": "CC(=O)NCCNC(=S)NCCSCC(=O)[C@@]1(O)[C@H](C)C[C@H]2[C@@H]3CCC4=CC(=O)C=C[C@]4(C)[C@@]3(F)[C@@H](O)C[C@@]21C", "note": "[Ac-Et-Sdex (15), Ac-Et-Sdex]", "values": [{"measurement": "concentration at which maximum Luc induction was achieved", "setting": "[1]", "value": 0.6, "unit": "µM"}, {"measurement": "EC50", "setting": "[3]", "value": 0.25, "unit": "µM"}, {"measurement": "concentration at which maximum Luc induction was achieved", "setting": "[3]; MCF7 cells", "value": 1, "unit": "µM"}, {"measurement": "maximum Luc induction", "setting": "[3]; MCF7 cells", "value": "1,200 fold"}]}
{"smiles": "C[C@H]1C[C@@H]2[C@H]3CCC4=CC(=O)C=C[C@@]4(C)[C@]3(F)[C@H](O)C[C@@]2(C)[C@]1(O)C(=O)CSCCNC(=S)NCCNC(=O)c1cc(NC(=O)c2cc(NC(=O)c3cc(NC(=O)c4cc(NC(=O)CCCNC(=O)c5nccn5C)cn4C)cn3C)cn2C)cn1C", "note": "[ImPy4γ-Et-Sdex (19), ImPy4γ-Et-Sdex]", "values": [{"measurement": "Luc activity induced (in words)", "setting": "[1]", "value": "lowest Luc activity among all Sdex conjugates"}]}
